From the supplement of paper PMC10307832

What was measured:
Assay in all cases: relative viability (nuclei count vs DMSO), 5 days (fraction); higher = more cells survive
[1] = compound: Cn1cc(-c2cnn3c(N)c(Br)c([C@@H]4CCCNC4)nc23)cn1 + CC(=O)Nc1cccc(-n2c(=O)n(C3CC3)c(=O)c3c(Nc4ccc(I)cc4F)n(C)c(=O)c(C)c32)c1 [Trametinib] (partner 0.02 µM)
Outline: (§1)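 Medians of duplicate plates are given as relative viability. That measure is the nuclei count in treated wells divided by the count in vehicle wells. Counts were taken on 4× images of lung cancer cell lines in 1536-well plates, 5 days after pin-tool dosing the day after seeding with one drug alone or a fixed anchor-drug dose plus five library-drug doses (not always all listed) in √10 steps.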

[2] = compound: Cn1cc(-c2cnn3c(N)c(Br)c([C@@H]4CCCNC4)nc23)cn1 + CC(C)C[C@H](NC(=O)[C@H](Cc1ccccc1)NC(=O)c1cnccn1)B(O)O [Bortezomib] (partner 0.002 µM)
Outline: as §1

[3] = compound: Cn1cc(-c2cnn3c(N)c(Br)c([C@@H]4CCCNC4)nc23)cn1 + CS(=O)(=O)N1CCN(Cc2cc3nc(-c4cccc5[nH]ncc45)nc(N4CCOCC4)c3s2)CC1 [Pictilisib] (partner 1 µM)
Outline: as §1

[4] = compound: Cn1cc(-c2cnn3c(N)c(Br)c([C@@H]4CCCNC4)nc23)cn1 + O=C(c1cc(Cc2n[nH]c(=O)c3ccccc23)ccc1F)N1CCN(C(=O)C2CC2)CC1 [Olaparib] (partner 8 µM)
Outline: as §1

Cell Line | relative viability ([1]; first compound 0.05 µM) | relative viability ([1]; first compound 0.1581 µM) | relative viability ([1]; first compound 0.5 µM) | relative viability ([1]; first compound 1.581 µM) | relative viability ([1]; first compound 5 µM) | relative viability ([2]; first compound 0.05 µM) | relative viability ([2]; first compound 0.1581 µM) | relative viability ([2]; first compound 0.5 µM) | relative viability ([2]; first compound 1.581 µM) | relative viability ([2]; first compound 5 µM) | relative viability ([3]; first compound 0.05 µM) | relative viability ([3]; first compound 0.1581 µM) | relative viability ([3]; first compound 0.5 µM) | relative viability ([3]; first compound 1.581 µM) | relative viability ([3]; first compound 5 µM) | relative viability ([4]; first compound 0.05 µM) | relative viability ([4]; first compound 0.1581 µM) | relative viability ([4]; first compound 0.5 µM) | relative viability ([4]; first compound 1.581 µM) | relative viability ([4]; first compound 5 µM)
HCC-44 | 0.998 | 1.09 | 1.12 | 1.08 | 1.13 | 0.91 | 1.11 | 0.923 | 0.882 | 0.796 | 0.566 | 0.577 | 0.63 | 0.465 | 0.427 | 1.01 | 0.975 | 1 | 0.91 | 1.01
HCC-78 | 0.822 | 1.14 | 0.834 | 0.844 | 0.674 | 0.482 | 0.567 | 0.556 | 0.511 | 0.39 | 0.245 | 0.246 | 0.11 | 0.155 | 0.154 | 0.826 | 0.874 | 0.947 | 0.878 | 0.465
HCC-366 | 0.388 | 0.311 | 0.301 | 0.284 | 0.286 | 1.03 | 1.2 | 1.06 | 0.734 | 0.334 | 0.278 | 0.17 | 0.156 | 0.205 | 0.263 | 0.392 | 0.372 | 0.296 | 0.229 | 0.137
HCC-827 | 0.499 | 0.541 | 0.556 | 0.549 | 0.444 | 0.919 | 1.03 | 1.18 | 1.1 | 1.01 | 0.999 | 1.13 | 0.974 | 1 | 0.928 | 0.707 | 0.622 | 0.766 | 0.628 | 0.339
HOP-62 | 0.354 | 0.376 | 0.404 | 0.339 | 0.34 | 0.847 | 1.02 | 1.28 | 0.708 | 0.294 | 0.896 | 0.699 | 0.586 | 0.444 | 0.455 | 0.321 | 0.262 | 0.208 | 0.241 | 0.199
IA-LM |  |  |  |  |  | 0.823 | 0.886 | 0.678 | 0.532 | 0.32 | 0.357 | 0.372 | 0.33 | 0.206 | 0.196 | 0.964 | 0.932 | 0.902 | 0.643 | 0.358
LC-2-ad | 0.974 | 0.986 | 0.935 | 0.931 | 0.961 | 1.03 | 1.15 | 0.938 | 1.06 | 0.935 | 0.546 | 0.466 | 0.335 | 0.349 | 0.272 | 0.753 | 0.686 | 0.648 | 0.727 | 0.726
LK-2 | 0.974 | 1.05 | 0.719 | 0.626 | 0.625 |  |  |  |  |  | 0.597 | 0.508 | 0.574 | 0.444 | 0.306 | 0.664 | 0.648 | 0.771 | 0.568 | 0.373
NCI-H358 | 0.132 | 0.115 | 0.122 | 0.102 | 0.121 |  |  |  |  |  | 0.314 | 0.346 | 0.309 | 0.352 | 0.304 | 0.675 | 0.643 | 0.598 | 0.372 | 0.414
NCI-H522 | 0.852 | 0.754 | 0.699 | 0.802 | 0.579 |  |  |  |  |  |  |  |  |  |  | 0.674 | 0.749 | 0.68 | 0.523 | 0.633
NCI-H1299 |  |  |  |  |  | 0.942 | 1.04 | 0.994 | 1.03 | 0.985 | 0.876 | 0.562 | 0.462 | 0.175 | 0.223 | 0.981 | 0.968 | 1 | 0.738 | 0.472
NCI-H1395 | 1.22 | 0.544 | 0.883 | 0.569 | 0.444 |  |  |  |  |  | 0.575 | 0.671 | 0.562 | 0.51 | 0.585 | 0.432 | 0.445 | 0.395 | 0.376 | 0.372
NCI-H1563 |  |  |  |  |  | 0.887 | 0.74 | 0.742 | 0.805 | 0.706 | 0.581 | 0.63 | 0.658 | 0.585 | 0.595 |  |  |  |  | 
NCI-H1648 | 0.443 | 0.478 | 0.421 | 0.435 | 0.515 |  |  |  |  |  |  |  |  |  |  | 0.64 | 0.829 | 1.1 | 1.08 | 0.583
NCI-H1703 |  |  |  |  |  | 0.231 | 0.261 | 0.19 | 0.132 | 0.138 | 0.237 | 0.183 | 0.178 | 0.156 | 0.155 | 0.416 | 0.364 | 0.364 | 0.233 | 0.123
NCI-H1793 | 0.451 | 0.36 | 0.367 | 0.481 | 0.458 |  |  |  |  |  | 0.306 | 0.411 | 0.308 | 0.21 | 0.191 | 1.02 | 1.08 | 0.921 | 0.718 | 0.472
NCI-H1944 | 0.406 | 0.382 | 0.39 | 0.374 | 0.379 |  |  |  |  |  | 0.341 | 0.358 | 0.346 | 0.32 | 0.302 | 0.408 | 0.448 | 0.374 | 0.378 | 0.349
NCI-H2170 | 0.973 | 0.93 | 0.927 | 0.763 | 1.13 |  |  |  |  |  | 0.281 | 0.299 | 0.262 | 0.274 | 0.295 | 0.605 | 0.588 | 0.649 | 0.523 | 0.555
NCI-H2342 | 0.801 | 0.9 | 0.682 | 0.835 | 0.777 |  |  |  |  |  |  |  |  |  |  | 0.467 | 0.585 | 0.448 | 0.463 | 0.438
SK-MES-1 | 0.595 | 0.567 | 0.607 | 0.346 | 0.222 |  |  |  |  |  | 0.333 | 0.395 | 0.336 | 0.288 | 0.216 | 0.879 | 0.596 | 0.441 | 0.34 | 0.2
SW 900 | 0.772 | 0.746 | 0.946 | 0.753 | 0.816 |  |  |  |  |  |  |  |  |  |  | 0.897 | 0.97 | 0.758 | 0.8 | 0.616
